According to ChEMBL document CHEMBL1201862, “PubChem BioAssay data set” (2004):
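Growth conditions: 96-well plates. Treatment: test compound, 48 hours, 5 concentrations. Analysis: linear interpolation between bracketing concentrations; unreached endpoints set to highest concentration. GI50: concentration for 50% inhibition of growth.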 Activity calls are given as the source filed them. Rule as the data show it: active = GI50 up to about 1.1 µM and inactive = higher.

Assays:
Experiment in all cases: NCI tumour cell line growth inhibition, 48 h
786-0 = test system: 786-0
A549 = test system: A549
ACHN = test system: ACHN
CAKI-1 = test system: CAKI-1
DU-145 = test system: DU-145
KM12 = test system: KM12
MDA-MB-435 = test system: MDA-MB-435
NCI/ADR-RES = test system: NCI/ADR-RES
OVCAR-3 = test system: OVCAR-3
PC-3 = test system: PC-3
SK-MEL-28 = test system: SK-MEL-28
SK-MEL-2 = test system: SK-MEL-2
SNB-19 = test system: SNB-19
T47D = test system: T47D
TK-10 = test system: TK-10
UACC-257 = test system: UACC-257
UACC-62 = test system: UACC-62
OVCAR-4 = test system: OVCAR-4
SF-539 = test system: SF-539
MCF7 = test system: MCF7

Row | SMILES | GI50 (786-0) | GI50 (A549) | GI50 (ACHN) | GI50 (CAKI-1) | GI50 (DU-145) | GI50 (KM12) | GI50 (MDA-MB-435) | GI50 (NCI/ADR-RES) | GI50 (OVCAR-3) | GI50 (PC-3) | GI50 (SK-MEL-28) | GI50 (SK-MEL-2) | GI50 (SNB-19) | GI50 (T47D) | GI50 (TK-10) | GI50 (UACC-257) | GI50 (UACC-62) | GI50 (OVCAR-4) | GI50 (SF-539) | GI50 (MCF7)
1 | CCOC(=O)Cn1c2ccc(Br)cc2c2nc3ccccc3nc21 | > 100 µM (inactive) | > 100 µM (inactive) | > 100 µM (inactive) | > 100 µM (inactive) | > 100 µM (inactive) | > 100 µM (inactive) | > 100 µM (inactive) | > 100 µM (inactive) | > 100 µM (inactive) | > 100 µM (inactive) | > 100 µM (inactive) | > 100 µM (inactive) | > 100 µM (inactive) | > 100 µM (inactive) | > 100 µM (inactive) | > 100 µM (inactive) | > 100 µM (inactive) | – | – | –
2 | CCN(CC)C1CC(O[C@H]2C[C@](O)(C(=O)CO)Cc3c(O)c4c(c(O)c32)C(=O)c2c(OC)cccc2C4=O)OC(C)C1O (stereo partly specified) | 0.0588 µM (active) | 0.0395 µM (active) | 0.0316 µM (active) | 0.232 µM (active) | – | 0.0577 µM (active) | – | – | 0.126 µM (active) | – | 0.0764 µM (active) | 0.067 µM (active) | 0.103 µM (active) | – | 0.0881 µM (active) | 0.0951 µM (active) | 0.0431 µM (active) | 0.0546 µM (active) | 0.0461 µM (active) | –
3 | CCCCOC(=O)NC(=O)c1cn(CCCOC(=O)CCCCCCCCC(=O)OCCCn2cc(C(=O)NC(=O)OCCCC)c(=O)n(C)c2=O)c(=O)n(C)c1=O | > 100 µM (inactive) | > 100 µM (inactive) | > 100 µM (inactive) | > 100 µM (inactive) | – | > 100 µM (inactive) | – | – | > 100 µM (inactive) | – | > 100 µM (inactive) | > 100 µM (inactive) | > 100 µM (inactive) | – | > 100 µM (inactive) | > 100 µM (inactive) | > 100 µM (inactive) | > 100 µM (inactive) | > 100 µM (inactive) | –
4 | CC(=O)OCc1ncccc1C(OC(C)=O)OC(C)=O | > 100 µM (inactive) | > 100 µM (inactive) | > 100 µM (inactive) | > 100 µM (inactive) | – | > 100 µM (inactive) | – | – | > 100 µM (inactive) | – | > 100 µM (inactive) | > 100 µM (inactive) | > 100 µM (inactive) | – | > 100 µM (inactive) | > 100 µM (inactive) | > 100 µM (inactive) | > 100 µM (inactive) | > 100 µM (inactive) | –
5 | CC(=O)c1c2c(cc3c1CC1(C3)Cc3cc4c(c(C(C)=O)c3C1)CCCC4)CCCC2 | 45.6 µM (inactive) | > 100 µM (inactive) | 27.9 µM (inactive) | – | – | 28.7 µM (inactive) | 57.7 µM (inactive) | > 100 µM (inactive) | 41.6 µM (inactive) | 21.4 µM (inactive) | – | 19.7 µM (inactive) | – | 62.2 µM (inactive) | > 100 µM (inactive) | 25.1 µM (inactive) | > 100 µM (inactive) | 53.2 µM (inactive) | > 100 µM (inactive) | 56.2 µM (inactive)
6 | CC1CCC2[C@@H](C)COC3O[C@]4(C)CCC1C32OO4 (stereo partly specified) | > 100 µM (inactive) | > 100 µM (inactive) | > 100 µM (inactive) | > 100 µM (inactive) | – | > 100 µM (inactive) | – | – | > 100 µM (inactive) | – | > 100 µM (inactive) | > 100 µM (inactive) | > 100 µM (inactive) | – | > 100 µM (inactive) | > 100 µM (inactive) | > 100 µM (inactive) | > 100 µM (inactive) | > 100 µM (inactive) | –
7 | Nn1c(-c2ccccc2Cl)nc2ccccc2c1=O | > 100 µM (inactive) | > 100 µM (inactive) | > 100 µM (inactive) | > 100 µM (inactive) | – | > 100 µM (inactive) | – | – | > 100 µM (inactive) | – | > 100 µM (inactive) | > 100 µM (inactive) | > 100 µM (inactive) | – | > 100 µM (inactive) | > 100 µM (inactive) | > 100 µM (inactive) | > 100 µM (inactive) | > 100 µM (inactive) | –
8 | O=C(Nc1c(Cl)cc([N+](=O)[O-])cc1Cl)C(=O)C1C(=O)NC(=S)NC1=O | > 100 µM (inactive) | > 100 µM (inactive) | > 100 µM (inactive) | > 100 µM (inactive) | – | > 100 µM (inactive) | > 100 µM (inactive) | > 100 µM (inactive) | > 100 µM (inactive) | > 100 µM (inactive) | > 100 µM (inactive) | > 100 µM (inactive) | > 100 µM (inactive) | > 100 µM (inactive) | > 100 µM (inactive) | > 100 µM (inactive) | > 100 µM (inactive) | > 100 µM (inactive) | > 100 µM (inactive) | > 100 µM (inactive)
9 | CCOC(=O)C(C)Sc1nnc(COc2ccccc2OC)n1-c1ccccc1 (stereo unspecified) | > 100 µM (inactive) | > 100 µM (inactive) | > 100 µM (inactive) | > 100 µM (inactive) | – | > 100 µM (inactive) | – | – | > 100 µM (inactive) | – | > 100 µM (inactive) | > 100 µM (inactive) | > 100 µM (inactive) | – | > 100 µM (inactive) | > 100 µM (inactive) | > 100 µM (inactive) | > 100 µM (inactive) | > 100 µM (inactive) | –
